Test systems include DMS 273 small cell lung; K-562 leukemia; HOP-92 NSCLC; SK-MEL-28 melanoma; XF 498 CNS; NCI-H460 lung; NCI-H23 lung; MALME-3M melanoma; SF-268 CNS; T-47D breast; HS 578T breast.
Holding throughout (experiment): growth of human tumour cells (NCI), 48 h

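48-hour exposure; five concentrations; linearly interpolated endpoints. TGI: total growth inhibition.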 Some results are limits rather than exact numbers.

For `O=C(Cl)c1cc([N+](=O)[O-])cc([N+](=O)[O-])c1`, the TGI in the assay on DMS 273 small cell lung, in the assay on K-562 leukemia, with HOP-92 NSCLC, with SK-MEL-28 melanoma, in the assay with XF 498 CNS and in the assay on NCI-H460 lung was greater than 100 µM in each case. Besides, the TGI in the assay on NCI-H23 lung, in the assay with MALME-3M melanoma and in the assay with SF-268 CNS was greater than 100 µM each time.

For the molecule `COc1cc(/C=C/C(=O)C(C)(C)C)cc(OC)c1OC`, the TGI in the assay on DMS 273 small cell lung was greater than 100 µM; with K-562 leukemia, greater than 100 µM; in the assay with HOP-92 NSCLC, greater than 100 µM; in the assay on SK-MEL-28 melanoma, greater than 100 µM; in the assay on XF 498 CNS, greater than 100 µM; in the assay on NCI-H460 lung, 67.4 µM. The TGI in the assay on NCI-H23 lung was 94.4 µM; with MALME-3M melanoma, greater than 100 µM; in the assay with SF-268 CNS, greater than 100 µM.

`Nc1nc(NC(=O)C2=NS(=O)(=O)c3cc(S(N)(=O)=O)c(Cl)cc3N2)n[nH]1`: the TGI with K-562 leukemia, in the assay on HOP-92 NSCLC, with SK-MEL-28 melanoma, with XF 498 CNS, with NCI-H460 lung and in the assay on NCI-H23 lung was greater than 100 µM in each case. Also, the TGI in the assay with MALME-3M melanoma and in the assay with SF-268 CNS was greater than 100 µM throughout.

Turning to `C[N+](C)(C)CC(=O)N/N=C(\C(=O)Nc1ccc(Cl)cc1)C1C(=O)N(c2ccccc2)N=C1N` (stereo unspecified), the TGI in the assay with DMS 273 small cell lung, in the assay on K-562 leukemia, in the assay on HOP-92 NSCLC, in the assay on SK-MEL-28 melanoma, in the assay on NCI-H460 lung and with NCI-H23 lung was greater than 100 µM in each case. The TGI in the assay with MALME-3M melanoma and with SF-268 CNS was greater than 100 µM throughout.

For the molecule `O=C(N/N=C/c1cc(-c2ccccc2Cl)c(-c2ccccc2Cl)o1)c1ccncc1`, the TGI in the assay with HOP-92 NSCLC, in the assay on SK-MEL-28 melanoma, with XF 498 CNS, in the assay on NCI-H23 lung, in the assay with MALME-3M melanoma and in the assay on SF-268 CNS was greater than 100 µM each time.

With `O=c1[nH]c2cccccc-2c1-c1nc2ccccc2[nH]1`, the TGI was 70.6 µM in the assay with DMS 273 small cell lung; greater than 100 µM in the assay on K-562 leukemia; 93.6 µM with HOP-92 NSCLC; 70.5 µM in the assay on SK-MEL-28 melanoma; 42.3 µM in the assay on XF 498 CNS; greater than 100 µM with NCI-H23 lung. In addition, the values for the TGI in the assay on MALME-3M melanoma and in the assay on SF-268 CNS were 50.6 µM and 45.3 µM, respectively.

Regarding `COc1ccccc1C1C(Cl)C(=O)N1NC(=O)Cc1ccccc1` (stereo unspecified), the TGI in the assay on DMS 273 small cell lung, in the assay with K-562 leukemia, in the assay on SK-MEL-28 melanoma, in the assay with XF 498 CNS, in the assay on NCI-H460 lung and in the assay with NCI-H23 lung was greater than 100 µM in each case. The TGI in the assay with MALME-3M melanoma and in the assay on SF-268 CNS was greater than 100 µM in each case.

For `O=C(O)CCCCCNC(=O)CCC(CN(CC(=O)OCc1ccccc1)CC(=O)OCc1ccccc1)N(CC(=O)OCc1ccccc1)CC(=O)OCc1ccccc1` (stereo unspecified), the TGI in the assay with K-562 leukemia was found to be 30.6 µM; in the assay on HOP-92 NSCLC, 31.1 µM; in the assay on T-47D breast it was 36.9 µM; with SK-MEL-28 melanoma it was 33.7 µM; with NCI-H460 lung, 55.7 µM; with HS 578T breast, 41.9 µM. Besides, the TGI was found to be 35 µM in the assay with NCI-H23 lung, 39.5 µM with MALME-3M melanoma and 43.3 µM in the assay with SF-268 CNS.

Turning to `COC(=O)C(I(OS(=O)(=O)c1ccc(C)cc1)c1ccccc1)=P(c1ccccc1)(c1ccccc1)c1ccccc1`, the TGI is greater than 100 µM in the assay with K-562 leukemia; 35.4 µM in the assay with HOP-92 NSCLC; 48.2 µM in the assay on T-47D breast; 28.7 µM in the assay on SK-MEL-28 melanoma; greater than 100 µM with NCI-H460 lung; 85.1 µM in the assay on HS 578T breast. Besides, the figures for the TGI in the assay with NCI-H23 lung, in the assay with MALME-3M melanoma and in the assay with SF-268 CNS were 34.1 µM, 21.6 µM and 33.4 µM, respectively.

`Cc1cc(C)n(CN(Cn2nc(C)cc2C)c2ccc(N(Cn3nc(C)cc3C)Cn3nc(C)cc3C)cc2)n1`: the TGI with K-562 leukemia was 50.3 µM; in the assay with HOP-92 NSCLC, 62.2 µM; in the assay with T-47D breast it was 51.8 µM; with SK-MEL-28 melanoma, 37.1 µM; with NCI-H460 lung, 63.8 µM; in the assay with HS 578T breast it was 57 µM. In addition, the TGI in the assay with NCI-H23 lung was determined as 58.6 µM; with MALME-3M melanoma it was 41.8 µM; with SF-268 CNS it was 69.7 µM.

With `CC(C)(C)OC(=O)N1CC(COS(C)(=O)=O)c2ccc(O)cc21` (stereo unspecified), the TGI stood at 9.54 µM with K-562 leukemia; 5.56 µM with HOP-92 NSCLC; 11.1 µM with T-47D breast; 3.8 µM with SK-MEL-28 melanoma; 5.45 µM with NCI-H460 lung; 5.75 µM with HS 578T breast. The results for the TGI in the assay with NCI-H23 lung, with MALME-3M melanoma and in the assay on SF-268 CNS were 3.05 µM, 2.86 µM and 4.33 µM, respectively.

Consider `CN(C)/C=C/c1ccnc2c1C(=O)c1ccccc1C2=O`, for which the TGI in the assay on K-562 leukemia was greater than 47.1 µM; with HOP-92 NSCLC, greater than 100 µM; in the assay on T-47D breast, greater than 85 µM; with SK-MEL-28 melanoma, 5.95 µM; with NCI-H460 lung, 7.13 µM; with HS 578T breast, 7.06 µM. Besides, the values for the TGI with NCI-H23 lung, in the assay with MALME-3M melanoma and in the assay on SF-268 CNS were 7.17 µM, 5.09 µM and greater than 69 µM, respectively.

Source of the values: PubChem BioAssay (NCI).
